Results reported in US20110021786A1, “Pharmaceutical Solutions, Process of Preparation and Therapeutic Uses” (UCB PHARMA, S.A., priority 2008, published 2011).
Read-outs that look alike come from different tables or passages of the source.

What was measured:
[1] = test system: audiogenic seizures in sound-susceptible mice; assay: animal model of sound-susceptible mice; type: in vivo; conditions: Mus musculus, ip; intraperitoneally 60 minutes before induction of audiogenic seizures; dose producing 50% protection
Text: The objective of this test is to evaluate the anticonvulsant potency of a compound in sound-susceptible mice, a genetic animal model with reflex seizures. In this model of primary generalised epilepsy, seizures are evoked without electrical or chemical stimulation and the seizure types are, at least in part, similar in their clinical phenomenology to seizures occurring in man (Löscher W. 85 Schmidt D., Epilepsy Res. (1998), 2, 145-181; Buchhalter J. R., Epilepsia (1993), 34, S31-S41).
Male or female genetically sound-sensitive mice (14-28 g; N=10), derived from a DBA strain originally selected by Dr. Lehmann of the Laboratory of Acoustic Physiology (Paris) and bred in the UCB Pharma Sector husbandry unit since 1978, are used. The experimental design consisted of several groups, one group receiving the vehicle control and the other groups different doses of the test-compound. The compounds are administered intraperitoneally 60 minutes before the induction of audiogenic seizures.
For testing, the animals are placed in small cages, one mouse per cage, in a sound-attenuated chamber. […] During this interval, the mice are observed and the presence of the 3 phases of the seizure activity namely wild running, clonic and tonic convulsions, is recorded. The proportion of mice protected against wild running, clonic and tonic convulsions, respectively, is calculated. […]

[2] = target: T1, Levetiracetam Binding Site (LBS) (Rattus norvegicus, UniProt Q02563); assay: LBS binding assay; design: species or system Sprague-Dawley rats
T1 construct: from tissue; host or cells: rat cerebral cortex crude membranes (male Sprague-Dawley)
Experimental: [LBS stands for Levetiracetam Binding Site cf. M. Noyer et al., Eur. J. Pharmacol., 286 (1995) 137-146.]
The inhibition constant (Ki) of a compound is determined in competitive binding experiments by measuring the binding of a single concentration of a radioactive ligand at equilibrium with various concentrations of the unlabeled test substance. The concentration of the test substance inhibiting 50% of the specific binding of the radioligand is called the IC50. The equilibrium dissociation constant Ki is proportional to the IC50 and is calculated using the equation of Cheng and Prusoff (Cheng Y. et al., Biochem. Pharmacol. […], 22, 3099-3108).
The concentration range usually encompasses 6 log units with variable steps (0.3 to 0.5 log). Assays are performed in mono- or duplicate, each Ki determination is performed on two different samples of test substance. […]
Membranes (150-200 μg of protein/assay) are incubated at 4° C. for 120 min in 0.5 ml of a 50 mmol/l Tris-HCl buffer (pH 7.4) containing 2 mmol/l MgCl2, 1 to 2 10^−9 mol/l of [^3H]-2-[4-(3-azidophenyl)-2-oxo-1-pyrrolidinyl]butanamide and increasing concentrations of the test substance. […] The radioactivity trapped onto the filters is counted by liquid scintillation in a β-counter (Tri-Carb 1900 or TopCount 9206, Camberra Packard, Belgium, or any other equivalent counter). […]

[3] = stability test of seletracetam solutions at different pH; type: physicochemical
Experimental: Solutions at different pH are prepared (natural pH (not buffered) and pH 4.5, 5.0, 5.5, 6.0. The pH is controlled by means of an adequate buffer in order to obtain the wished pH (in the example: 50 mM acetate).
(§1) The solution is dispensed in 1.5 ml sealed glass vials.
(§2) A stability test is performed at 25° C., 40° C., 60° C. and 80° C.
The pH of the various solutions is measured at the beginning of the test and after 2 weeks, 4 weeks, and 10 weeks. The amounts of degradation products in the seletracetam solutions are dosed in the various solutions.

[4] = stability test of brivaracetam solutions at different pH; type: physicochemical
Experimental: Solutions at different pH are prepared (natural pH (not buffered) and pH 4.5, 5.0, 5.5, 6.0. The pH is controlled by means of an adequate buffer in order to obtain the wished pH (in the example by 50 mM citrate).
as §1, §2
The pH of the various solutions is measured at the beginning of the test and after 2 weeks, 4 weeks, and 10 weeks. The amounts of degradation products in the brivaracetam solutions are dosed in the various solutions.

[5] = bioavailability and safety of an intravenous formulation of brivaracetam; type: in vivo, healthy subjects
Experimental: A first step of the study done in a 3-way crossover in 24 healthy subjects (12 females, 12 males) compares the single-dose bioavailability of brivaracetam 10 mg oral tablets versus brivaracetam 10 mg administered as a 15 minute intravenous infusion, and as an IV bolus. In a second step, a single-dose escalation study (25 mg, 50 mg, 100 mg and 150 mg) is performed in 4 consecutive groups of 6 subjects (3 females, 3 males) to gain information and as a fast IV bolus, to assess the pharmacokinetics of brivaracetam at these dosing regimens and to explore dose proportionality.

[6] = solution having a pH range of 5.0 and 6.0
[7] = solution in the range of pH of 4.5 and 6.5
[8] = 10 mg IV infusion or IV bolus versus 10 mg oral tablet, fully contained within the bioequivalence range

T1 sequence (Q02563 whole entry): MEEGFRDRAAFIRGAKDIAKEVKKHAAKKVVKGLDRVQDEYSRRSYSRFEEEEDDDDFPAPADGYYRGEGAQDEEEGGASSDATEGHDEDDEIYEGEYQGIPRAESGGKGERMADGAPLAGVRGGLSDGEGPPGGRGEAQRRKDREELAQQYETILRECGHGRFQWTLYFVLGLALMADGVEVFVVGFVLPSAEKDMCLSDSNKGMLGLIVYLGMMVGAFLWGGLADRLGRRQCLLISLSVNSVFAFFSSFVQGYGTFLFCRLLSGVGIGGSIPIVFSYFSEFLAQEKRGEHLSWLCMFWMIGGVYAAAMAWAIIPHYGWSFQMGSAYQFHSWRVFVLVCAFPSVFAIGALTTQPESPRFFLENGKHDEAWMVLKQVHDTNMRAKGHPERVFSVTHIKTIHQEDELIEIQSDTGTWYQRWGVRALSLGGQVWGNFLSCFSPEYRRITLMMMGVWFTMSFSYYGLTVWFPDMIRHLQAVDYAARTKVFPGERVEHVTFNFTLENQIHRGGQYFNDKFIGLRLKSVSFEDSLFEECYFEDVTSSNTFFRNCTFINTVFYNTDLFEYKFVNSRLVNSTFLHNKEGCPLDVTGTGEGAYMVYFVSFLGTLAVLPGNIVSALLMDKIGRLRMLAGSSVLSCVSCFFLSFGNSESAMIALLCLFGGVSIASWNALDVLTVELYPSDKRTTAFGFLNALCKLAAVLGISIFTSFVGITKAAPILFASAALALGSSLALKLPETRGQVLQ

Row | SMILES | ED50 [1] | Ki ([2]; rat cerebral cortex membranes, [3H]-2-[4-(3-azidophenyl)-2-oxo-1-pyrrolidinyl]butanamide radioligand, read-out: pKi (converted)) | degradation rate [3, 6] | stability of solution [3, 7] | degradation rate [4, 6] | stability of solution [4, 7] | 90% confidence intervals of geometric ratios of AUC [5, 8] | 90% confidence intervals of geometric ratios of Cmax [5, 8] | bioequivalence to single dose of brivaracetam 10 mg oral tablet ([5]; 10 mg via 15-minute IV infusion, healthy subjects) | bioequivalence to single dose of brivaracetam 10 mg oral tablet ([5]; 10 mg via IV bolus, healthy subjects) | pharmacokinetic parameters after IV infusion and IV bolus ([5]; IV infusion compared with IV bolus) | extent of exposure versus dose ([5]; dose range 25-150 mg) | safety and tolerability ([5]; from 25 mg to 150 mg as IV infusion or IV bolus, healthy subjects) | Ki [2]
1 | CC[C@@H](C(N)=O)N1C[C@H](C=C(F)F)CC1=O [Seletracetam, (2S)-2-[(4S)-4-(2,2-difluorovinyl)-2-oxo-pyrrolidin-1-yl]butanamide] | ≤ 100 µmol/kg | ≤ 1000 nM | lowest | stable |  |  |  |  |  |  |  |  |  | 
2 | CCC[C@@H]1CC(=O)N([C@@H](CC)C(N)=O)C1 [Brivaracetam, (2S)-2-[(4R)-2-oxo-4-propyl-pyrrolidin-1-yl] butanamide] | ≤ 100 µmol/kg |  |  |  | lowest | stable | 80-125% | 80-125% | bioequivalent | bioequivalent | similar | proportional to the administered dose | safe and well tolerated | ≤ 1000 nM
